# Results from patent US20030139431A1 (priority 2001, published 2003).
# pEC50, pKi: −log10 of the molar value.
# Experiments:
# rNPFF2 [1] = biological target: T1, rNPFF2 (Rattus norvegicus, UniProt Q9EQD2); assay: Binding affinity at cloned recombinant rat NPFF2 receptor
# T1 construct: expressed in transfected cells
# rNPFF1 [2] = biological target: T2, rNPFF1 (Rattus norvegicus, UniProt Q9EP86); assay: Functional assay (agonist potency, intrinsic activity) at cloned rat NPFF1 receptor; type: cell-based; details: for rNPFF1 IA (intrinsic activity): percent of maximum response elicited by neuropeptide FF, rat NPFF1; for pEC50: recombinant rat NPFF1
# T2 construct: expressed in transfected cells
# Description: (§1) Intrinsic activity of a compound is measured as the percent of maximum response.
# rNPFF1 [3] = biological target: T2, rNPFF1; assay: Binding affinity at cloned recombinant rat NPFF1 receptor
# rNPFF2 [4] = biological target: T1, rNPFF2; assay: Functional assay (agonist potency, intrinsic activity) at cloned rat NPFF2 receptor; type: cell-based; details: for rNPFF2 IA (intrinsic activity): percent of maximum response elicited by neuropeptide FF, rat NPFF2; for pEC50: recombinant rat NPFF2
# Description: as §1
# T2 sequence (Q9EP86 whole entry): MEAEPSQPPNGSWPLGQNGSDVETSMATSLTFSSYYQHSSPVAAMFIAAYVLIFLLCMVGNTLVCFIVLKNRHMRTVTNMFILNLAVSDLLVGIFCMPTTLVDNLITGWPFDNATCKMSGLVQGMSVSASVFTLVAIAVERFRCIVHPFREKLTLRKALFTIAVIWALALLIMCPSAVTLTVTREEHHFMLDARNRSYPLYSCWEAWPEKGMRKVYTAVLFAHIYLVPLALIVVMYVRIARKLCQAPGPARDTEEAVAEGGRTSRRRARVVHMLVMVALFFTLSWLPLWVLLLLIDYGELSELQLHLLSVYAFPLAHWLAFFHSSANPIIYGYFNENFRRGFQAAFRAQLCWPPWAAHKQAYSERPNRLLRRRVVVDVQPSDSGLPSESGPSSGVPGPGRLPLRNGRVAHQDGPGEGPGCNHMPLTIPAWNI
# T1 sequence (Q9EQD2 whole entry): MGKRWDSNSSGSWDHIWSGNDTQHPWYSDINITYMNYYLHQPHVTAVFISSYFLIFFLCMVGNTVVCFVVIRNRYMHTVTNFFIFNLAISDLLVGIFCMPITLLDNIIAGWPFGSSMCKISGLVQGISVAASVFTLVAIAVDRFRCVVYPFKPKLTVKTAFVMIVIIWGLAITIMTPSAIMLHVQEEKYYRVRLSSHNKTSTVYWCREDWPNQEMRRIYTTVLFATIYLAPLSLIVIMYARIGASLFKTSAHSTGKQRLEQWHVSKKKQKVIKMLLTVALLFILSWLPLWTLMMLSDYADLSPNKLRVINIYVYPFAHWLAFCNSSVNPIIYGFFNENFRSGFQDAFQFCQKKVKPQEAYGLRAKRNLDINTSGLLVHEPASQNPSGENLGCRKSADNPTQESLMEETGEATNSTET
SMILES,pKi (rNPFF2 [1]),rNPFF1 IA (intrinsic activity) (rNPFF1 [2]),pEC50 (rNPFF1 [2]),pKi (rNPFF1 [3]),rNPFF2 IA (intrinsic activity) (rNPFF2 [4]),pEC50 (rNPFF2 [4])
"COc1cc2c(C)nc(NC(=N)N)nc2cc1C [Compound 1016, N-(6-methoxy-4,7-dimethyl-2-quinazolinyl)guanidine]",5.60,Inactive,< 5.00,6.25,74% NPFF,5.50
"Cc1nc(NC(=N)N)nc2ccc(OCCCCCOc3ccccc3)cc12 [Compound 1005, N-4-methyl-6-[(5-phenoxypentyl)oxy]-2-quinazolinylguanidine]",5.67,Inactive,< 5.00,6.50,21% NPFF,5.50
"Cc1cc2nc(NC(=N)N)nc(C)c2cc1C [Compound 1015, N-(4,6,7-trimethyl-2-quinazolinyl)guanidine]",5.96,Inactive,< 5.00,7.38,56% NPFF,6.57
"Cc1nc(NC(=N)N)nc2cc(OC(C)C)ccc12 [Compound 1025, N-[4-methyl-7-(isopropoxy)-2-quinazolinyl]guanidine]",5.34,Inactive,< 5.00,6.60,27% NPFF,5.50
"Cc1nc(NC(=N)N)nc2ccc(Oc3ccccc3)cc12 [Compound 1032, N-(4-methyl-6-phenoxy-2-quinazolinyl)guanidine]",5.79,31% NPFF,6.43,6.54,93% NPFF,6.34
"CCCc1ccc2nc(NC(=N)N)nc(C)c2c1 [Compound 1008, N-(4-methyl-6-propyl-2-quinazolinyl)guanidine]",5.95,Inactive,< 5.00,6.81,85% NPFF,6.21
"Cc1nc(NC(=N)N)nc2ccc(-c3ccccc3)cc12 [Compound 1010, N-(4-methyl-6-phenyl-2-quinazolinyl)guanidine]",5.46,Inactive,< 5.00,6.51,22% NPFF,< 5.00
"Cc1nc(NC(=N)N)nc2ccc(Cl)cc12 [Compound 1013, N-(6-chloro-4-methyl-2-quinazolinyl)guanidine]",5.69,Inactive,< 5.00,6.48,52% NPFF,6.16
"Cc1nc(NC(=N)N)nc2ccc(Cc3ccccc3)cc12 [Compound 2003, N-(6-benzyl-4-methyl-2-quinazolinyl)guanidine]",6.71,56% NPFF,6.77,6.43,89% NPFF,7.31
"Cc1ccc(Oc2ccc3nc(NC(=N)N)nc(C)c3c2)cc1 [Compound 1033, N-[4-methyl-6-(4-methylphenoxy)-2-quinazolinyl]guanidine]",5.23,Inactive,< 5.00,6.32,51% NPFF,5.50
"Cc1nc(NC(=N)N)nc2ccc(CCCC(C)O)cc12 (centres unmarked) [Compound 1034, N-(6-[1-(4-hydroxyl-pentyl)]-4-methyl-2-quinazolino)guanidine]",5.81,63% NPFF,6.21,7.09,101% NPFF,6.40
"CCCCCCCc1ccc2nc(NC(=N)N)nc(C)c2c1 [Compound 2006, N-(6-heptyl-4-methyl-2-quinazolinyl)guanidine]",5.43,38% NPFF,6.05,6.10,47% NPFF,5.71
"Cc1cc(NC(=N)N)nc2cc(F)ccc12 [Compound 4007, N-(7-fluoro-4-methyl-2-quinolinyl)guanidine]",6.21,Inactive,< 5.00,7.36,17% NPFF,5.58
"Cc1nc(NC(=N)N)nc2cc(Br)ccc12 [Compound 1014, N-(7-bromo-4-methyl-2-quinazolinyl)guanidine]",5.46,Inactive,< 5.00,6.52,47% NPFF,5.61
"CCCCc1ccc2nc(NC(=N)N)nc(C)c2c1 [Compound 2004, N-(6-butyl-4-methyl-2-quinazolinyl)guanidine]",6.58,40% NPFF,6.71,6.41,101% NPFF,6.91
"CCCCCOc1ccc2nc(NC(=N)N)nc(C)c2c1 [Compound 1031, N-[4-methyl-6-(pentyloxy)-2-quinazolinyl]guanidine]",5.49,Inactive,< 5.00,6.10,66% NPFF,5.66
"Cc1nc(NC(=N)N)nc2ccc(C(C)(C)C)cc12 [Compound 1004, N-(6-tert-butyl-4-methyl-2-quinazolinyl)guanidine]",5.83,36% NPFF,5.83,6.15,90% NPFF,6.36
"CCOc1ccc2c(C)nc(NC(=N)N)nc2c1 [Compound 1024, N-(7-ethoxy-4-methyl-2-quinazolinyl)guanidine]",5.25,Inactive,< 5.00,6.18,Inactive,< 5.00
"Cc1nc(NC(=N)N)nc2ccc(OC(F)(F)F)cc12 [Compound 1030, N-[4-methyl-6-(trifluoromethoxy)-2-quinazolinyl]guanidine]",5.31,Inactive,< 5.00,6.75,85% NPFF,6.20
"CCC(C)c1ccc2nc(NC(=N)N)nc(C)c2c1 (centres unmarked) [Compound 2002, N-(6-sec-butyl-4-methyl-2-quinazolinyl)guanidine]",6.34,51% NPFF,6.60,7.11,92% NPFF,6.37
"Cc1nc(NC(=N)N)nc2cc3c(cc12)C=CCC3 [Compound 1037, N-(4-methyl-8,9-dihydrobenzo[g]quinazolin-2-yl)guanidine]",6.08,Inactive,< 5.00,6.84,71% NPFF,5.50
"Cc1nc(NC(=N)N)nc2cc(OCc3ccccc3)ccc12 [Compound 1006, N-[7-(benzyloxy)-4-methyl-2-quinazolinyl]guanidine]",5.97,15% NPFF,< 5.00,6.39,22% NPFF,5.97
"CCCCc1ccc2nc(NC(=N)N)cc(C)c2c1 [Compound 5001, N-(6-butyl-4-methyl-2-quinolinyl)guanidine]",6.94,28% NPFF,6.91,7.62,82% NPFF,7.16
"CCc1ccc2nc(NC(=N)N)nc(C)c2c1 [Compound 1003, N-(6-ethyl-4-methyl-2-quinazolinyl)guanidine]",5.79,Inactive,< 5.00,6.62,83% NPFF,6.41
"CCc1ccc2c(C)nc(NC(=N)N)nc2c1 [Compound 1020, N-(7-ethyl-4-methyl-2-quinazolinyl)guanidine]",6.56,Inactive,< 5.00,7.74,90% NPFF,6.16
"CCCCCCc1ccc2nc(NC(=N)N)nc(C)c2c1 [Compound 2005, N-(6-hexyl-4-methyl-2-quinazolinyl)guanidine]",6.57,56% NPFF,6.86,7.06,81% NPFF,6.98
"CCCCCCCCc1ccc2nc(NC(=N)N)nc(C)c2c1 [Compound 1009, N-(4-methyl-6-octyl-2-quinazolinyl)guanidine]",6.15,Inactive,–,6.51,22% NPFF,5.25
"CCCCOc1cc2nc(NC(=N)N)nc(C)c2cc1OCCCC [Compound 1018, N-(6,7-dibutoxy-4-methyl-2-quinazolinyl)guanidine]",5.89,Inactive,< 5.00,6.52,Inactive,< 5.00
"Cc1nc(NC(=N)N)nc2cc(C(C)O)ccc12 (centres unmarked) [Compound 1035, N-[7-(1-hydroxyethyl)-4-methyl-2-quinazolinyl]guanidine]",5.93,Inactive,< 5.00,6.07,52% NPFF,5.50
